The source of these data is patent US11839613B2, “Pyrimidine derivatives as PGE2 receptor modulators” (IDORSIA PHARMACEUTICALS LTD, priority 2017, dated 2023).

pIC50: −log10 of the molar value.

The target of assay [1] is EP4 (Homo sapiens (Human), UniProt P35408). Kind of assay: hEP4 cAMP assay (BT549 breast cancer cells, HTRF cAMP). It counts as cell-based. The settings on record: antagonistic activity, PGE2 6 nM. The method in brief:
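BT549 breast cancer cells (endogenous EP4) in HBSS/20 mM HEPES/0.2% BSA/2 mM IBMX preincubated 45 min at RT with compound, then stimulated 30 min at RT with 6 nM PGE2 (final). cAMP read by competitive HTRF immunoassay, signal inversely proportional to cAMP.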
A general note: Cyclic AMP is a second messenger, typically raised through Gs and lowered through Gi signalling.

For assay [2], the target named is PTGER4 (EP4) (Homo sapiens (Human), UniProt P35408). Briefly: cell-based.
Assay [3] addresses EP2 (Homo sapiens (Human), UniProt P43116). Briefly: hEP2 cAMP assay (SF295 glioblastoma cells, HTRF cAMP). It counts as cell-based. Conditions: antagonistic activity. In a few lines:
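PGE2-driven cAMP accumulation was measured by HTRF in SF295 cells, which express endogenous EP2 only. Cells in assay buffer with 2 mM IBMX were pre-incubated 45 min at RT, then incubated 30 min at RT. Detection used competition between cellular cAMP and d2-cAMP for a cryptate anti-cAMP antibody.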

Assay [4] has as its target PTGER2 (EP2) (Homo sapiens (Human), UniProt P43116). Briefly: hEP2 b-arrestin assay (PathHunter HEK 293 PTGER2 b-arrestin cells). The format is cell-based. The settings on record: antagonistic activity, beta-arrestin assay; read-out: hEP2 b-arr IC50. The protocol:
Plate is pre-incubated 15 minutes at 37° C. Then five microliters of PGE2 (final conc. 5 μM) are transferred into the assay plate. Plate is incubated 120 minutes at 37° C.
(each concentration is measured in duplicate)

EP2, sequence (P43116 whole entry): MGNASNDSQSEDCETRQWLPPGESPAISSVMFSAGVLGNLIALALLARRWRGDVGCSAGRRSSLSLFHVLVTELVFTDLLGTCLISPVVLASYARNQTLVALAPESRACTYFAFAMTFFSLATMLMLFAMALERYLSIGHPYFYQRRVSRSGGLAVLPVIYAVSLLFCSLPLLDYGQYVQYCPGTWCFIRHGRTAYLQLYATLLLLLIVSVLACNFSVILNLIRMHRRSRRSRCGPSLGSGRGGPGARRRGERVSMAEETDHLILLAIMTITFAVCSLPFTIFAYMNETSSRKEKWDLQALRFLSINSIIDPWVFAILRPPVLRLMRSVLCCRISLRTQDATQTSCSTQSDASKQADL
PTGER2 (EP2), sequence (P43116 whole entry): as above
EP4, sequence (P35408 whole entry): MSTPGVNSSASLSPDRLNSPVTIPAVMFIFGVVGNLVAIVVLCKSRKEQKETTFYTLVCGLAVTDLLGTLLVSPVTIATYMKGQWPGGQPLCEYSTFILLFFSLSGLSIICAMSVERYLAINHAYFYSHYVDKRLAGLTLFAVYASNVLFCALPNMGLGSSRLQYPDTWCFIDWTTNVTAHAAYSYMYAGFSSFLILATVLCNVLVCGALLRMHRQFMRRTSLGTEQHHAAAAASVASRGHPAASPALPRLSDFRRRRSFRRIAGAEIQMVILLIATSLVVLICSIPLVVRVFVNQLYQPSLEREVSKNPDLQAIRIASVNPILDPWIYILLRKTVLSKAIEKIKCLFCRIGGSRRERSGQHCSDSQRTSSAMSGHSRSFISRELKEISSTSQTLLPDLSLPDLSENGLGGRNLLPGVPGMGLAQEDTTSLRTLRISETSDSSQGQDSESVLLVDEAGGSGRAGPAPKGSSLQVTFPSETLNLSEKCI
PTGER4 (EP4), sequence (P35408 whole entry): as above

The pIC50 is the negative decadic logarithm of the IC50, by convention in mol/L. For `CCOc1nc(-c2cc(NCCc3ccc4ccccc4c3C)ncn2)sc1C(=O)O` [Example 350, 4-Ethoxy-2-{6-[2-(1-methyl-naphthalen-2-yl)-ethylamino]-pyrimidin-4-yl}-thiazole-5-carboxylic acid], the pIC50 in assay [1] was 8.00; in assay [2], 7.68; in assay [3] it was 7.29; in assay [4], 7.08.

With `CCOc1cc(-c2cc(NCCc3cc4c(cc3F)OCCN4C)ncn2)sc1C(=O)O` [Ex 104, 3-Ethoxy-5-{6-[2-(7-fluoro-4-methyl-3,4-dihydro-2H-benzo[1,4]oxazin-6-yl)-ethylamino]-pyrimidin-4-yl}-thiophene-2-carboxylic acid], the pIC50 in assay [1] is 7.15; in assay [2], 7.04; in assay [3] it was 7.89; in assay [4], 7.92.

Consider `CCOc1cc(-c2cc(NCCc3cc4ccsc4cc3OC)ncn2)sc1-c1noc(=O)[nH]1` [Example 342, 3-(3-Ethoxy-5-{6-[2-(6-methoxy-benzo[b]thiophen-5-yl)-ethylamino]-pyrimidin-4-yl}-thiophen-2-yl)-[1,2,4]oxadiazol-5(4H)-one], for which the pIC50 in assay [1] was 7.72; in assay [2], 8.52; in assay [3], 7.70; in assay [4] it was 8.15.

Take `CCOc1nc(-c2cc(NCCc3ccc4ccccc4c3C)ncn2)sc1-c1noc(=O)[nH]1` [Example 352, 3-(4-Ethoxy-2-{6-[2-(1-methyl-naphthalen-2-yl)-ethylamino]-pyrimidin-4-yl}-thiazol-5-yl)-[1,2,4]oxadiazol-5(4H)-one]: the pIC50 in assay [1] is 7.62; in assay [2], 8.30; in assay [3], 6.85; in assay [4], 7.38.

For `CC(C)COc1cc(-c2cc(NCCc3cc(F)c4sccc4c3)ncn2)ccc1C(=O)O` [Example 453, 4-{6-[2-(7-Fluoro-benzo[b]thiophen-5-yl)-ethylamino]-pyrimidin-4-yl}-2-isobutoxy-benzoic acid], the pIC50 was 6.93 in assay [1] (BT549 cells), 7.15 in assay [2], 6.55 in assay [3] and 6.99 in assay [4].

Turning to `CCOc1cc(-c2cc(NCCc3cc4c(cc3C)OCCO4)ncn2)ccc1OCC(=O)O` [Ex 184, (2-Ethoxy-4-{6-[2-(7-methyl-2,3-dihydro-benzo[1,4]dioxin-6-yl)-ethylamino]-pyrimidin-4-yl}-phenoxy)-acetic acid], the pIC50 is 6.70 in assay [1], 6.42 in assay [2], 6.79 in assay [3] and 6.77 in assay [4].

As for `COc1cc2sccc2cc1CCNc1cc(-c2ccc(C(=O)O)cc2)ncn1` [Ex 276, 4-{6-[2-(6-Methoxy-benzo[b]thiophen-5-yl)-ethylamino]-pyrimidin-4-yl}-benzoic acid], the pIC50 was 6.32 in assay [1], 5.74 in assay [2], 7.33 in assay [3] and 7.10 in assay [4].

Consider `CCOc1cc(-c2cc(NCCc3cc(F)c4sccc4c3)ncn2)sc1CC(=O)O` [Example 456, (3-Ethoxy-5-{6-[2-(7-fluoro-benzo[b]thiophen-5-yl)-ethylamino]-pyrimidin-4-yl}-thiophen-2-yl)-acetic acid], for which the pIC50 in assay [1] (BT549 cells) was 7.85; in assay [2] it was 7.68; in assay [3] it was 6.51; in assay [4], 6.89.

Turning to `CCOc1cc(-c2cc(NCCc3cc4ccoc4cc3F)ncn2)sc1C(=O)O` [Ex 13, 3-Ethoxy-5-{6-[2-(6-fluoro-benzofuran-5-yl)-ethylamino]-pyrimidin-4-yl}-thiophene-2-carboxylic acid], the pIC50 was 8.10 in assay [1], 8.05 in assay [2], 7.82 in assay [3] and 7.92 in assay [4].

On to `CCOc1cc2c(cc1CCNc1cc(-c3ccc(C(=O)O)c(OCC)c3)ncn1)OCCO2` [Ex 261, 2-Ethoxy-4-{6-[2-(7-ethoxy-2,3-dihydro-benzo[1,4]dioxin-6-yl)-ethylamino]-pyrimidin-4-yl}-benzoic acid], for which the pIC50 was 6.39 in assay [1], 6.40 in assay [2], 7.70 in assay [3] and 7.28 in assay [4].

Regarding `CCOc1cc(-c2cc(NCCc3ccc4[nH]ccc4c3)ncn2)sc1C(=O)O` [Ex 32, 3-Ethoxy-5-{6-[2-(1H-indol-5-yl)-ethylamino]-pyrimidin-4-yl}-thiophene-2-carboxylic acid], the pIC50 in assay [1] is 7.74; in assay [2], 7.25; in assay [3], 6.79; in assay [4], 6.70.

Take `CCOc1cc(-c2cc(NCCc3cc(Cl)c4c(c3)OCCO4)ncn2)sc1C(=O)O` [Ex 51, 5-{6-[2-(8-Chloro-2,3-dihydro-benzo[1,4]dioxin-6-yl)-ethylamino]-pyrimidin-4-yl}-3-ethoxy-thiophene-2-carboxylic acid]: the pIC50 in assay [1] is 7.60; in assay [2], 7.66; in assay [3], 6.68; in assay [4], 6.64.

Turning to `CCCc1cc(-c2cc(NCCc3ccc4sccc4c3F)ncn2)ccc1CC(=O)O` [Example 386, (4-{6-[2-(4-Fluoro-benzo[b]thiophen-5-yl)-ethylamino]-pyrimidin-4-yl}-2-propyl-phenyl)-acetic acid], the pIC50 in assay [1] is 7.27; in assay [2], 7.55; in assay [3], 6.34; in assay [4], 7.19.

On to `CCOc1cc(-c2cc(NCCc3cc4cccnc4cc3F)ncn2)sc1-c1noc(=O)[nH]1` [Example 348, 3-(3-Ethoxy-5-{6-[2-(7-fluoro-quinolin-6-yl)-ethylamino]-pyrimidin-4-yl}-thiophen-2-yl)-[1,2,4]oxadiazol-5(4H)-one], for which the pIC50 in assay [1] is 8.10; in assay [2] it was 8.70; in assay [3], 6.95; in assay [4], 6.76.

With `C#Cc1cc2ccccc2cc1CCNc1cc(-c2ccc(C(=O)O)c(OCC)c2)ncn1` [Ex 105, 2-Ethoxy-4-{6-[2-(3-ethynyl-naphthalen-2-yl)-ethylamino]-pyrimidin-4-yl}-benzoic acid], the pIC50 was 7.14 in assay [1], 7.28 in assay [2], 7.12 in assay [3] and 7.40 in assay [4].

For the molecule `COc1cc2c(cc1CCNc1cc(-c3ccc4cc(C(=O)O)oc4c3)ncn1)OCCO2` [Ex 81, 6-{6-[2-(7-Methoxy-2,3-dihydro-benzo[1,4]dioxin-6-yl)-ethylamino]-pyrimidin-4-yl}-benzofuran-2-carboxylic acid], the pIC50 in assay [1] is 6.79; in assay [2], 5.74; in assay [3], 6.91; in assay [4], 6.91.

Regarding `CSc1cc(-c2cc(NCCc3cc(Cl)c4sccc4c3)ncn2)ccc1C(=O)O` [Example 360, 4-{6-[2-(7-Chloro-benzo[b]thiophen-5-yl)-ethylamino]-pyrimidin-4-yl}-2-methylsulfanyl-benzoic acid], the negative logarithm of the IC50 (pIC50) is 7.36 in assay [1], 7.16 in assay [2], 6.74 in assay [3] and 6.86 in assay [4].

For `C=C(C(=O)O)c1ccc(-c2cc(NCCc3cc4c(cc3OC)OCCO4)ncn2)cc1` [Ex 337], the pIC50 in assay [1] is 5.84; in assay [2], 5.88; in assay [3], 5.88; in assay [4], 6.18.
